Data published in the supplement of paper PMC11451515.

Test system: SEM cells
Experiment: cell viability relative to DMSO control; higher = less cytotoxic
Conditions: 48 h
Method in brief: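 NOMO1, SEM and P12-Ichikawa leukemia cells spent at least four passages adapting to each medium before use. They were seeded at 500 cells/well (NOMO1, SEM) or 1000 cells/well (P12-Ichikawa) in 5 μl in 1536-well plates and pin-dosed with library compounds in DMSO at 11 threefold steps from 47 μM down to 0.79 nM. After 48 h at 37°C, CellTiter-Glo One luminescence was read. Viability is reported as a percentage of the DMSO wells on each plate, with cell-free wells as background.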

[1] = HPLM + 10% dialyzed FBS, 0.000781 µM
[2] = HPLM + 10% dialyzed FBS, 0.00234 µM
[3] = HPLM + 10% dialyzed FBS, 0.00702 µM
[4] = HPLM + 10% dialyzed FBS, 0.0211 µM
[5] = HPLM + 10% dialyzed FBS, 0.0632 µM
[6] = HPLM + 10% dialyzed FBS, 0.19 µM
[7] = HPLM + 10% dialyzed FBS, 0.569 µM
[8] = HPLM + 10% dialyzed FBS, 1.71 µM
[9] = HPLM + 10% dialyzed FBS, 5.12 µM
[10] = HPLM + 10% dialyzed FBS, 15.4 µM
[11] = HPLM + 10% dialyzed FBS, 46.1 µM
[12] = RPMI 5 mM glucose + 10% FBS, 0.000781 µM
[13] = RPMI 5 mM glucose + 10% FBS, 0.00234 µM
[14] = RPMI 5 mM glucose + 10% FBS, 0.00702 µM
[15] = RPMI 5 mM glucose + 10% FBS, 0.0211 µM
[16] = RPMI 5 mM glucose + 10% FBS, 0.0632 µM
[17] = RPMI 5 mM glucose + 10% FBS, 0.19 µM
[18] = RPMI 5 mM glucose + 10% FBS, 0.569 µM
[19] = RPMI 5 mM glucose + 10% FBS, 1.71 µM
[20] = RPMI 5 mM glucose + 10% FBS, 5.12 µM
[21] = RPMI 5 mM glucose + 10% FBS, 15.4 µM
[22] = RPMI 5 mM glucose + 10% FBS, 46.1 µM
[23] = RPMI 5 mM glucose + 10% dialyzed FBS, 0.000781 µM
[24] = RPMI 5 mM glucose + 10% dialyzed FBS, 0.00234 µM
[25] = RPMI 5 mM glucose + 10% dialyzed FBS, 0.00702 µM
[26] = RPMI 5 mM glucose + 10% dialyzed FBS, 0.0211 µM
[27] = RPMI 5 mM glucose + 10% dialyzed FBS, 0.0632 µM
[28] = RPMI 5 mM glucose + 10% dialyzed FBS, 0.19 µM
[29] = RPMI 5 mM glucose + 10% dialyzed FBS, 0.569 µM
[30] = RPMI 5 mM glucose + 10% dialyzed FBS, 1.71 µM
[31] = RPMI 5 mM glucose + 10% dialyzed FBS, 5.12 µM
[32] = RPMI 5 mM glucose + 10% dialyzed FBS, 15.4 µM
[33] = RPMI 5 mM glucose + 10% dialyzed FBS, 46.1 µM

| Compound | cell viability [1] [%] | cell viability [2] [%] | cell viability [3] [%] | cell viability [4] [%] | cell viability [5] [%] | cell viability [6] [%] | cell viability [7] [%] | cell viability [8] [%] | cell viability [9] [%] | cell viability [10] [%] | cell viability [11] [%] | cell viability [12] [%] | cell viability [13] [%] | cell viability [14] [%] | cell viability [15] [%] | cell viability [16] [%] | cell viability [17] [%] | cell viability [18] [%] | cell viability [19] [%] | cell viability [20] [%] | cell viability [21] [%] | cell viability [22] [%] | cell viability [23] [%] | cell viability [24] [%] | cell viability [25] [%] | cell viability [26] [%] | cell viability [27] [%] | cell viability [28] [%] | cell viability [29] [%] | cell viability [30] [%] | cell viability [31] [%] | cell viability [32] [%] | cell viability [33] [%] |
| --- | --- | --- | --- | --- | --- | --- | --- | --- | --- | --- | --- | --- | --- | --- | --- | --- | --- | --- | --- | --- | --- | --- | --- | --- | --- | --- | --- | --- | --- | --- | --- | --- | --- |
| O=C(Nc1ccccc1-c1cn2c(CN3CCNCC3)csc2n1)c1cnc2ccccc2n1 | 61.2 | 97.4 | 109 | 98.1 | 81.4 | 81.1 | 90.5 | 67.5 | 72.5 | 48.3 | 1.98 | 71.4 | 107 | 95.2 | 103 | 76 | 84.4 | 94.8 | 67.4 | 54.3 | 59.2 | 2.64 | 56.4 | 93.2 | 84.5 | 86.5 | 65.4 | 80.1 | 79.5 | 52.6 | 53.9 | 37.4 | 2.76 |
| OC[C@H]1OCC(O1)[N@@]2C=CC(N)=NC2=O (stereo not given in full) | 108 | 81.3 | 90.7 | 106 | 115 | 103 | 107 | 99.3 | 96.3 | 102 | 96.6 | 73.1 | 62.4 | 77.8 | 77.5 | 78 | 84.2 | 80 | 64.4 | 70.7 | 63.8 | 56.3 | 96.7 | 95.8 | 96.3 | 106 | 113 | 110 | 114 | 103 | 106 | 101 | 88.8 |
| COc1ccc(C(C)=O)c(O)c1 | 93.7 | 98.2 | 110 | 95.1 | 94.2 | 111 | 108 | 112 | 114 | 121 | 112 | 104 | 121 | 118 | 124 | 87.8 | 114 | 121 | 137 | 120 | 118 | 121 | 105 | 92.2 | 118 | 125 | 108 | 126 | 102 | 133 | 132 | 123 | 117 |
| CN1\C(=C(\O)C2=CC=CC=C2[S+]1([O-])=O)C(=O)NC3=NC=C(C)S3 | 94.9 | 94.8 | 98.2 | 103 | 87.8 | 85.2 | 90.2 | 83.1 | 99.9 | 96.7 | 102 | 74.8 | 81.5 | 94.5 | 97.7 | 78 | 90.2 | 103 | 78.3 | 104 | 84 | 91.3 | 77.4 | 99.6 | 94.6 | 97 | 80.7 | 107 | 99.9 | 95.1 | 106 | 107 | 108 |
| O=C1c2c(O)ccc(O)c2C(=O)c2c(NCCNCCO)ccc(NCCNCCO)c21 | 77.4 | 81 | 88.6 | 105 | 95 | 96.5 | 5.15 | 14.7 | 4.46 | 3.34 | 3.77 | 88.3 | 99.7 | 127 | 116 | 97.5 | 79.1 | 5.41 | 10.6 | 4.48 | 2.93 | 3.79 | 90 | 89 | 96.4 | 95.7 | 97.9 | 99 | 4.03 | 15.7 | 4.3 | 2.61 | 3.1 |
| O=C(c1ccc(Nc2nccc(-c3cc4ccccc4s3)n2)cc1)N1CCC(N2CCCC2)CC1 | 103 | 107 | 108 | 110 | 102 | 104 | 99.3 | 82.4 | 65.2 | 10.8 | 2.34 | – | – | – | – | – | – | – | – | – | – | – | 105 | 120 | 98.2 | 118 | 106 | 114 | 108 | 97.9 | 69.3 | 28.2 | 2.16 |
| C[C@]12CC[C@@H]3c4ccc(O)cc4C[C@@H](CCCCCCCCC[S+]([O-])CCCC(F)(F)C(F)(F)F)[C@H]3[C@@H]1CC[C@@H]2O (stereo not given in full) | 123 | 112 | 114 | 118 | 113 | 112 | 125 | 117 | 119 | 126 | 109 | 89.1 | 84 | 82.8 | 93.2 | 85 | 80.4 | 82.4 | 99.2 | 80.8 | 83.7 | 86.3 | 120 | 124 | 105 | 111 | 110 | 112 | 125 | 114 | 103 | 102 | 81.6 |
